System: cornea calcification in end stage renal disease patients
Assay: Cornea calcification by slit-lamp photographs and Image J analysis, Phase II and open-label extension
Type: in vivo, human
Settings: for 1st eye test Calcified area on cornea (%): baseline
Method: Eye examinations were carried out by using a slit-lamp microscope which was connected to a digital camera (NIKON E995). Calcifications in the cornea occur close to the nasal and temporal sides of the corneal limbus and look like the band keratopathy of hypercalcemia. Observer photographed the inner side (close to nasal), outer side (close to temporal) or took a full view of the cornea where calcification was found (FIG. 6).
An image analysis software called “Image J” was used for data analysis. The image analysis software is developed to display, edit, analyze, process, save and print 8-bit, 16-bit and 32-bit images. It can calculate area and pixel value statistics of user-defined selections, measure distances and angles, and create density histograms and line profile plots. It supports standard image processing functions such as contrast manipulation, sharpening, smoothing, edge detection and median filtering. The software is developed at the Research Services Branch of the National Institute of Mental Health, an institute of the National Institutes of Health (NIH). The software can be downloaded from the NIH website.
The image analysis software is able to measure calcified area and total cornea area that are subjectively defined by the user. To estimate calcified area, the observer first loads the patient's eye picture on to the image software, crops the specific calcified region, and the software will measure the defined section accordingly (defined as how many pixels in that area). […] To estimate the size of the full cornea, the observer used the image software to crop a 90 degrees fan-shape area on the available cornea region on the picture subjectively, and then let the software calculate the size of this fan-shape area to represent ¼ of the full cornea. By multiply the number by four, the observer then got an estimate of total cornea area.
The severity of cornea calcification was evaluated based on the percentage of the cornea surface occupied by calcification, i.e. % inner side calcification+% outer side calcification, wherein inner or outer side calcification is calculated as (calcified area on inner or outer cornea/total cornea area)×100.
In this study, patients were referred to ophthalmic department for eye examination before and after ferric citrate treatment. All patients had their 1st eye examination few days before or on the first dosing day of the Phase II trial (baseline value for cornea calcification). The time for 2nd eye examination was varied. Some were examined right after the Phase II study and some were examined during the OLE period. Nonetheless, disregarding when the 2nd eye examination was taken, it must be obtained after a defined consecutive days of ferric citrate administration in order to be considered as valid value for determinating the effects of ferric citrate on the cornea calcification changes.
All patients from the ferric citrate Phase II clinical trial were followed with a drug free period for various length of time, and some patients then participated in the open-label extension treatment period. Each participating patients received two eye examinations performed by an ophthalmologist. Depending on the dates of the first and second eye examinations and the corresponding drug dosing period, not all participating patients can generate usable information. The accepted patients were those who had received consecutive dosing for at least 21 days. The period between the first and second eye examination was at least as long as the dosing period. The actual interval between the two eye examinations was not relevant for the purpose of this evaluation since the longer the time between the first and second eye examination, the higher the possibility of cornea calcification development, not the other way around. […]

[1] = 11 patients on active treatment (22 eye values)
[2] = Subject 2-01-1-002, Left eye, 2 g/day, treatment 28 days, interval between tests 61 days
[3] = Subject 2-01-1-002, Right eye, 2 g/day, treatment 28 days, interval between tests 61 days
[4] = Subject 2-01-1-004, Left eye, 6 g/day, treatment 28 days, interval between tests 78 days
[5] = Subject 2-01-1-004, Right eye, 6 g/day, treatment 28 days, interval between tests 78 days
[6] = Subject 2-01-1-006, Left eye, 6 g/day, treatment 28 days, interval between tests 50 days
[7] = Subject 2-01-1-006, Right eye, 6 g/day, treatment 28 days, interval between tests 50 days
[8] = Subject 2-01-1-009, Left eye, 4 g/day, treatment 28 days, interval between tests 50 days
[9] = Subject 2-01-1-009, Right eye, 4 g/day, treatment 28 days, interval between tests 50 days
[10] = Subject 2-01-1-012, Left eye, 2 g/day, treatment 28 days, interval between tests 66 days
[11] = Subject 2-01-1-012, Right eye, 2 g/day, treatment 28 days, interval between tests 66 days
[12] = Subject 2-01-1-018, Left eye, 6 g/day, treatment 28 days, interval between tests 75 days
[13] = Subject 2-01-1-018, Right eye, 6 g/day, treatment 28 days, interval between tests 75 days
[14] = Subject 2-01-1-022, Left eye, 6 g/day, treatment 57 days, interval between tests 217 days
[15] = Subject 2-01-1-022, Right eye, 6 g/day, treatment 57 days, interval between tests 217 days
[16] = Subject 2-01-1-042, Left eye, 6 g/day, treatment 42 days, interval between tests 199 days
[17] = Subject 2-01-1-042, Right eye, 6 g/day, treatment 42 days, interval between tests 199 days
[18] = Subject 2-01-1-048, Left eye, 4 g/day, treatment 28 days, interval between tests 186 days
[19] = Subject 2-01-1-048, Right eye, 4 g/day, treatment 28 days, interval between tests 186 days
[20] = Subject 2-01-1-050, Left eye, 6 g/day, treatment 33 days, interval between tests 198 days
[21] = Subject 2-01-1-050, Right eye, 6 g/day, treatment 33 days, interval between tests 198 days
[22] = Subject 2-01-1-068, Left eye, 6 g/day, treatment 34 days, interval between tests 202 days
[23] = Subject 2-01-1-068, Right eye, 6 g/day, treatment 34 days, interval between tests 202 days

O=C([O-])CC(O)(CC(=O)[O-])C(=O)[O-].[Fe+3] [ferric citrate] was tested, and the “average change of worsened eye cornea calcification values” (10 worsened eye values of 11 actively treated patients) was “+2.20%”, the “average change of improved eye cornea calcification values” (11 improved eye values of 11 actively treated patients) was −2.07% and the “number of eye cornea calcification values that exhibited improvement” value [1] was 11. For the same compound, the “number of eye cornea calcification values that remained unchanged” value [1] was “one”, the “number of eye cornea calcification values that exhibited worsened results” value (11 patients on active treatment (22 eye values), 2-6 g/day, 28 to 57 days) was 10 and the “effect on cornea calcification conditions (overall)” value (ESRD patients, 2-6 g/day) was “appears to delay or improve cornea calcification conditions”. The “cornea calcification after treatment (FIG. 10)” value (Patient ID 2-01-1-012, 2 g/day, treatment period 28 days) was “improved cornea calcification”, the “2nd eye test Calcified area on cornea (%)” value [2] was 3.75% and the “Difference between 1st and 2nd tests (%)” value [2] was −0.15%. The “1st eye test Calcified area on cornea (%)” value [2] was 3.90%, the “2nd eye test Calcified area on cornea (%)” value [3] was 0.00% and the “Difference between 1st and 2nd tests (%)” value [3] was 0.00%. For the same compound, the “1st eye test Calcified area on cornea (%)” value [3] was 0.00%, the “2nd eye test Calcified area on cornea (%)” value [4] was 1.10% and the “Difference between 1st and 2nd tests (%)” value [4] was −1.40%. The “1st eye test Calcified area on cornea (%)” value [4] was 2.50%, the “2nd eye test Calcified area on cornea (%)” value [5] was 2.20% and the “Difference between 1st and 2nd tests (%)” value [5] was −2.18%. For the same compound, the “1st eye test Calcified area on cornea (%)” value [5] was 4.38%, the “2nd eye test Calcified area on cornea (%)” value [6] was 50.36% and the “Difference between 1st and 2nd tests (%)” value [6] was −0.59%. For the same compound, the “1st eye test Calcified area on cornea (%)” value [6] was 50.95%, the “2nd eye test Calcified area on cornea (%)” value [7] was 29.27% and the “Difference between 1st and 2nd tests (%)” value [7] was −3.16%. For the same compound, the “1st eye test Calcified area on cornea (%)” value [7] was 32.43%, the “2nd eye test Calcified area on cornea (%)” value [8] was 0.00% and the “Difference between 1st and 2nd tests (%)” value [8] was −1.16%. For the same compound, the “1st eye test Calcified area on cornea (%)” value [8] was 1.16%, the “2nd eye test Calcified area on cornea (%)” value [9] was 1.00% and the “Difference between 1st and 2nd tests (%)” value [9] was 0.49%. The “1st eye test Calcified area on cornea (%)” value [9] was 0.51%, the “2nd eye test Calcified area on cornea (%)” value [10] was 2.09% and the “Difference between 1st and 2nd tests (%)” value [10] was −1.41%. The “1st eye test Calcified area on cornea (%)” value [10] was 3.50%, the “2nd eye test Calcified area on cornea (%)” value [11] was 4.69% and the “Difference between 1st and 2nd tests (%)” value [11] was −10.21%. The “1st eye test Calcified area on cornea (%)” value [11] was 14.90%, the “2nd eye test Calcified area on cornea (%)” value [12] was 7.72% and the “Difference between 1st and 2nd tests (%)” value [12] was 1.79%. The “1st eye test Calcified area on cornea (%)” value [12] was 5.93%, the “2nd eye test Calcified area on cornea (%)” value [13] was 38.86% and the “Difference between 1st and 2nd tests (%)” value [13] was −1.99%. The “1st eye test Calcified area on cornea (%)” value [13] was 40.85%, the “2nd eye test Calcified area on cornea (%)” value [14] was 8.37% and the “Difference between 1st and 2nd tests (%)” value [14] was 6.98%. The “1st eye test Calcified area on cornea (%)” value [14] was 1.39%, the “2nd eye test Calcified area on cornea (%)” value [15] was 7.29% and the “Difference between 1st and 2nd tests (%)” value [15] was 0.08%. For the same compound, the “1st eye test Calcified area on cornea (%)” value [15] was 7.21%, the “2nd eye test Calcified area on cornea (%)” value [16] was 4.91% and the “Difference between 1st and 2nd tests (%)” value [16] was 4.24%. For the same compound, the “1st eye test Calcified area on cornea (%)” value [16] was 0.67%, the “2nd eye test Calcified area on cornea (%)” value [17] was 3.73% and the “Difference between 1st and 2nd tests (%)” value [17] was 3.24%. For the same compound, the “1st eye test Calcified area on cornea (%)” value [17] was 0.49%, the “2nd eye test Calcified area on cornea (%)” value [18] was 2.01% and the “Difference between 1st and 2nd tests (%)” value [18] was 0.16%. For the same compound, the “1st eye test Calcified area on cornea (%)” value [18] was 1.85%, the “2nd eye test Calcified area on cornea (%)” value [19] was 2.09% and the “Difference between 1st and 2nd tests (%)” value [19] was −0.41%. The “1st eye test Calcified area on cornea (%)” value [19] was 2.50%, the “2nd eye test Calcified area on cornea (%)” value [20] was 1.62% and the “Difference between 1st and 2nd tests (%)” value [20] was 0.76%. The “1st eye test Calcified area on cornea (%)” value [20] was 0.86%, the “2nd eye test Calcified area on cornea (%)” value [21] was 1.54% and the “Difference between 1st and 2nd tests (%)” value [21] was −0.08%. The “1st eye test Calcified area on cornea (%)” value [21] was 1.62%, the “2nd eye test Calcified area on cornea (%)” value [22] was 3.09% and the “Difference between 1st and 2nd tests (%)” value [22] was 2.04%. For the same compound, the “1st eye test Calcified area on cornea (%)” value [22] was 1.05%, the “2nd eye test Calcified area on cornea (%)” value [23] was 2.24% and the “Difference between 1st and 2nd tests (%)” value [23] was 2.24%. For the same compound, the “1st eye test Calcified area on cornea (%)” value [23] was 0.00%.

— patent US9889113B2, “Method for reversing, preventing, delaying or stabilizing soft tissue calcification” (Panion & BF Biotech, Inc., priority 2006, dated 2018)
